Laboratory results from patent publication US20060234986A1, “Use of TAFI inhibitors for enhanced myocardial reperfusion and facilitated PCI” (Schering Aktiengesellschaft, priority 2005, published 2006).

Columns and labels:
[1] = test system: rat femoral artery occlusive thrombus; assay: Rat femoral artery thrombosis model (rose Bengal + light irradiation), incidence of reperfusion; format: in vivo
Description: A stable, occlusive thrombus was formed by giving rose Bengal intravenously followed by light irradiation. Free radicals generated at the site of irradiation result in endothelial damage that causes an occlusive thrombus. Thrombotic occlusion and effective fibrinolysis (reperfusion) were monitored by measuring blood flow with a Doppler flow probe. Since no spontaneous reperfusion is observed in this model, a threshold dose of tPA was used to mimic the endogenous fibrinolytic activity observed in patients with STEMI undergoing PCI (16-25% spontaneous reperfusion rate). […] Based on the results of phanmacokinetic studies and in vitro clot lysis assays, two doses (3 and 10 mg/kg) of a TAFI inhibitor of the invention, (2S)-2-(3-(amino)methylphenyl)-3-(((1R)-1-(3-phenylpropylsulfonyl)amino-2-methylpropyl)(hydroxy)phosphinoyl)propanoic acid trifluoroacetate, were used.
Male Wistar rats (241-270 g) were anesthetized with sodium pentobarbital. A section of the right femoral artery was isolated carefully, and a pulse Doppler flow probe was placed for monitoring blood flow. The left carotid artery, both jugular veins, and left femoral vein were cannulated with polyethylene tubes for monitoring blood pressure and heart rate, for injection of tPA, rose Bengal and TAFI inhibitor, respectively. Blood flow, blood pressure and heart rate were continuously recorded on a thermal recorder during the experiment. An occlusive thrombus was induced in the right femoral artery by bolus injection of rose Bengal followed by light exposure. Occlusive thrombus was observed approximately 6 min after the injection of rose Bengal and start of irradiation.
Rats were assigned to four groups for the tPA dose response as follows: • (1) Vehicle (saline; n=8) • (2) tPA (72 μg/kg/min=2.5 million I.U./kg/hr; n=8) • (3) tPA (115 μg/kg/min=4 million I.U./kg/hr; n=10) • (4) tPA (230 μg/kg/min=8 million I.U./kg/hr; n=8)
tPA or vehicle was infused via the right jugular vein beginning 10 min after the formation of occlusive thrombus and the infusion was continued for 60 min.
Rats were assigned to three groups for the TAFI inhibitor efficacy study as follows: • (1) tPA threshold (72 μg/kg/min, n=16) • (2) low TAFI inhibitor (3 mg/kg+0.03 mg/kg/min) and tPA threshold (72 μg/kg/min) (n=8) • (3) high TAFI inhibitor (10 mg/kg+0.10 mg/kg/min) and tPA threshold (72 μg/kg/min) (n=8)
Administration of TAFI inhibitor or vehicle via the left femoral vein was started simultaneously with tPA via the right jugular vein beginning 10 min after the formation of occlusive thrombus, both given as a bolus over 1 min and infusion for 59 min. […] The incidence of reperfusion was used as the index of drug efficacy.

[2] = test system: dog femoral artery occlusive thrombus; assay: Dog femoral artery thrombosis model (FeCl2 injury), reperfusion and time to occlusion; format: in vivo; conditions: TAFI inhibitor pre-treatment (10 min before FeCl2), n=6, p=ns vs control group
Description: (§1) A dog femoral artery thrombosis model was used to test that TAFI inhibition by i.v. administration of a potent and selective TAFI inhibitor would potentiate fibrinolysis. A stable, occlusive thrombus was formed using FeCl2 to chemically injure the arterial wall. Thrombotic occlusion and reperfusion (effective fibrinolysis) were monitored by measuring blood flow with a Doppler flow probe. Since no spontaneous reperfusion is observed in this model, a sub-maximal dose of tPA was used to enhance baseline activity. […] Bleeding propensity was measured by determining the time required for bleeding to stop following a series of standardized wounds (sectioning of the cuticle).
(§2) Male Beagle dogs (8-12 kg) were anesthetized with isoflurane (2-3%). […] Femoral artery blood flow, systemic blood pressure, heart rate and breathing patterns were monitored and recorded on a data acquisition system during the experiment. […] The time for the cut to cease bleeding was recorded as the primary bleeding time.
(§3) After stabilization of hemodynamic parameters, a blood sample was taken for drug levels. […] Bleeding time was determined and a blood sample was collected 20 min after the start of the tPA infusion. […]

[3] = test system: bleeding time after sectioning of the cuticle; assay: Dog cuticle bleeding time; format: in vivo
Description: as §1, §2, §3

[4] = test system: α2-antiplasmin; assay: Ex vivo α2-antiplasmin activity (colorimetric assay) in dog plasma
Description: Plasma drug concentration was measured using LC/MS/MS techniques. Ex vivo α2-antiplasmin, an indicator of systemic plasmin activation, was measured by colorimetric assay. Exogenously activated TAFI (10 nM) was added into the blank plasma and TAFI activity measured by colorimetric assays was defined as 100%. Plasma from TAFI inhibitor-administered dogs were treated in the same way, and results were expressed as the percent inhibition of the spiked TAFI activity.

[5] = test system: rabbit jugular vein thrombus; assay: Rabbit jugular vein thrombosis model, thrombus weight; format: in vivo; conditions: for Thrombus weight (wet): 90 min
Description: Thrombosis was initiated ex vivo and introduced into the jugular vein. Treatment compound(s) were administered to the animals after thrombus formation and introduction. Fibrinolysis was assessed by measuring clot weight at the end of the study. […] The threshold dose of tPA was combined with either a TAFI inhibitor of the invention, (2S)-2-(3-(amino)methylphenyl)-3-(((1R)-1-(3-phenylpropylsulfonyl)amino-2-methylpropyl)(hydroxy)phosphinoyl)propanoic acid trifluoroacetate, or the peptidic TAFI inhibitor CPI, which was used as a positive control to confirm the effect of TAFI inhibition in this model.
Male New Zealand white rabbits (2.35-3.14 kg) were anesthetized using isoflurane. A segment of the jugular vein was isolated with ligatures and injected with a mixture of autologous citrated blood and thromboplastin to induce thrombus formation. The thrombus formed in the isolated venous segment was allowed to mature for 30 minutes prior to releasing the ligatures and initiating thrombolytic treatment.
Rabbits were divided into the following treatment groups (10-12 animals per group): • (1) vehicle; phosphate buffered saline (PBS) • (2) threshold fibrinoloytic dose tPA (10 μg/kg+67 μg/kg/hr) • (3) CPI (500 μg/kg+300 μg/kg/hr)+tPA low (10 μg/kg+67μg/kg/hr) • (4) low TAFI inhibitor (0.3 mg/kg+0.14 mg/kg/hr)+tPA low (10 μg/kg+67 μg/kg/hr) • (5) high TAFI inhibitor (3 mg/kg+1.4 mg/kg/hr)+tPA low ([…]+67 μg/kg/hr) • (6) maximally effective dose tPA (30 μg/kg+200 μg/kg/hr)
Blood samples were collected from the left jugular vein for measurement of TAFI inhibitor plasma drug levels prior to releasing the ligatures (time=0), and at 1, 10, 30, 60, and 90 minutes after starting thrombolytic treatment. CPI, TAFI inhibitor, tPA or vehicle were administered as bolus injections, followed by a constant infusion for 90 minutes via the right marginal ear vein. At the end of 90 minutes, the rabbits were euthanized and the thrombus was removed for determination of wet and dry weights. The relative effects of all treatment groups were the same, regardless of whether wet or dry weights were utilized for analysis, so only wet weights are used in the subsequent discussion. The assessment of bleeding risk was evaluated by measuring the weight of blood loss from toe nail clips performed prior to thrombolytic treatment, and at the end of the study. Re-bleeding from the previous site following initial hemostasis was also recorded.
Data were analyzed using ANOVA followed by the LSD test for a comparison of differences in thrombus weight in the various treatment groups. In the vehicle-treated animals (group 1) thrombus weights averaged 98±9 mg. […] When either CPI (group 3) or TAFI inhibitor (group 4 or 5) was given together with the low dose of tPA, the threshold effect of tPA was enhanced, and a significant reduction in thrombus weights was observed when compared to the vehicle-treated group. This enhancement of fibrinolytic activity of tPA for the CPI group (68±10 mg) and the low dose TAFI inhibitor group (63±10 mg) was similar to results obtained with the high dose TAFI inhibitor group (56±13 mg). In animals treated with the higher dose of tPA (group 6), a significant reduction in thrombus weight (41±7 mg) was observed compared to both the vehicle and low dose tPA groups.

[6] = test system: LPS-induced impairment of fibrinolysis (lung fibrin deposition); assay: Rat lung fibrin deposition model (batroxobin, 125I-fibrinogen, LPS); format: in vivo
Description: This model was used to test the hypothesis that inhibition of endogenous TAFI can enhance fibrinolysis. Batroxobin, a thrombin-like enzyme, was used to hydrolyze fibrinogen to fibrin, which deposits in tissues, especially in the lungs. Following tissue deposition, fibrin is lysed into fibrin degradation products, which return to the blood. In this study, ^125I-labeled fibrinogen was given and tissue accumulation of fibrin and the subsequent fibrinolysis were assessed by the mobilization of ^125I from blood to tissue (generation of ^125I-fibrin from ^125I-fibrinogen) and back to blood (generation of ^125I-fibrin degradation products from ^125I-fibrin) after batroxobin injection. LPS has been known to stinulate the release of numerous endogenous factors that can inhibit fibrinolytic activity, including TAFI, thus preventing spontaneous fibrinolysis in the lungs.
Male Sprague-Dawley rates (300-350g) were randomly divided into three groups: • (1) untreated (controls) • (2) treated with LPS • (3) treated with LPS+TAFI inhibitor. Animals assigned to receive LPS (0.5 mg/kg, iv) were injected 3 hours before batroxobin injection. Twenty minutes before batroxobin injection, all animals were anesthetized with pentobarbital (65 mg/kg, ip), and saline-filled catheters were placed into the right carotid artery and left jugular vein for blood collection and drug injection, respectively. ^125I-fibrinogen (1 mCi) was administered to all animals 10 min. prior to batroxobin injection and animals assigned to receive the TAFI inhibitor (10 mg/kg) were injected 5 min. before the batroxobin. The rats were sacrificed at either 5 or 30 min after batroxobin injection.

CC(C)[C@H](NS(=O)(=O)CCCc1ccccc1)P(=O)(O)C[C@H](C(=O)O)c1cccc(CN)c1.O=C(O)C(F)(F)F [TAFI inhibitor, (2S)-2-(3-(amino)methylphenyl)-3-(((1R)-1-(3-phenylpropylsulfonyl)amino-2-methylpropyl)(hydroxy)phosphinoyl)propanoic acid trifluoroacetate]
Incidence of reperfusion ([1]; 3 mg/kg TAFI inhibitor + tPA (72 μg/kg/min) post-thrombus formation, p = ns): 25% (2/8) p = ns | Incidence of reperfusion ([1]; 10 mg/kg TAFI inhibitor + tPA (72 μg/kg/min) post-thrombus formation, p < 0.03): 63% (5/8) p < 0.03 | Incidence of reperfusion ([1]; high TAFI inhibitor dose 10 mg/kg + 0.10 mg/kg/min i.v. + tPA threshold 72 μg/kg/min, post-thrombus, reperfused/total rats): 5/8 | Incidence of reperfusion ([1]; low TAFI inhibitor dose 3 mg/kg + 0.03 mg/kg/min i.v. + tPA threshold 72 μg/kg/min, post-thrombus, reperfused/total rats): 2/8 | Time to occlusion induced by FeCl2 [2]: 31.1 ± 3.9 min | Bleeding time ([3]; TAFI inhibitor 10 mg/kg pre-thrombus + tPA 10 μg/kg/min, versus tPA alone): without further prolongation of bleeding time | Inhibition of α2-antiplasmin activity induced by tPA infusion ([4]; TAFI inhibitor administered pre- or post-thrombus formation + tPA): did not change | % Reduction Thrombus Weight ([5]; 0.3 mg/kg TAFI inhibitor + tPA post-thrombus formation, p = ns): 36% p = ns | % Reduction Thrombus Weight ([5]; 3 mg/kg TAFI inhibitor + tPA post-thrombus formation, p = ns): 43% p = ns | Thrombus weight (wet) ([5]; high TAFI inhibitor 3 mg/kg + 1.4 mg/kg/hr + tPA low (10 pg/kg + 67 μg/kg/hr)): 56 ± 13 mg | Thrombus weight (wet) ([5]; low TAFI inhibitor 0.3 mg/kg + 0.14 mg/kg/hr + tPA low (10 μg/kg + 67 μg/kg/hr)): 63 ± 10 mg | CPM in the lungs versus control rats ([6]; LPS + TAFI inhibitor 10 mg/kg, 30 min after batroxobin): not different | Blood CPM and 125I in the lungs ([6]; LPS + TAFI inhibitor 10 mg/kg, 30 min after batroxobin, versus LPS-treated rats): prevented LPS-induced recovery of blood CPM and resulted in ^125I retention in the lungs | Radioactive readings in blood or lungs ([6]; TAFI inhibitor 10 mg/kg in LPS-treated rats, 5 min after batroxobin, in relation to LPS-treated rats): did not change

tPA: tissue-type plasminogen activator, a plasminogen activator used as thrombolytic agent
Incidence of reperfusion ([1]; TAFI inhibitor efficacy study, tPA threshold dose 72 μg/kg/min alone, reperfused/total rats): 2/16 | Incidence of reperfusion ([1]; tPA dose response study, tPA 72 μg/kg/min infused 60 min, starting 10 min after occlusive thrombus, reperfused/total rats): 1/8 | Incidence of reperfusion ([1]; tPA dose response study, tPA 115 μg/kg/min infused 60 min, reperfused/total rats): 5/10 | Incidence of reperfusion ([1]; tPA dose response study, tPA 230 μg/kg/min infused 60 min, reperfused/total rats): 6/8 | Bleeding time ([3]; dog, in vivo): prolonged dose-dependently | Activity of α2-antiplasmin (indicator of systemic plasmin activation) ([4]; tPA infusion, dose dependence): dose-dependently reduced | Thrombus weight (wet) ([5]; higher (maximally effective) dose tPA 30 μg/kg + 200 μg/kg/hr alone): 41 ± 7 mg | Thrombus weight (wet) ([5]; low (threshold) dose tPA 10 μg/kg + 67 μg/kg/hr alone, not significant vs vehicle): 80 ± 11 mg | % Reduction Thrombus Weight ([5]; threshold dose tPA (10 μg/kg + 1 μg/kg/min) alone): 18%
